Source: patent US9023789B2, “Amylin analogs and pharmaceutical compositions thereof” (Novo Nordisk A/S, priority 2012, dated 2015)
pEC50: −log10 of the molar value. Numbered stars: 1 amine (or outer) side, 2 acyl side, 3 side chain; on linkers, the order of the positions; unused ones are H or OH. Bridge positions count the residues as written; N and C are the ends. Side chains are listed from the residue outwards. Peptide text beside a SMILES is read from it. * marks the point of attachment. C20 diacid = O=C(O)CCCCCCCCCCCCCCCCCCC(=O)*; γGlu = O=C(O)[C@H](CCC(=O)[*:2])N[*:1]

Key:
[1] = ASSAY (III) ThT fibrillation assay for physical stability; type: physicochemical
Procedure, shortened: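 Physical stability scored by ThT fluorescence (444 nm excitation, 485 nm emission) tracked every 20 min during 37 °C incubation with 960 rpm shaking, ThT at 1 μM final. Values are replicate means with SD at chosen times; HPLC against pramlintide standard gives initial and post-assay soluble concentrations.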

[2] = biological target: T1, human amylin 3(a) receptor (human calcitonin receptor + RAMP-3) in BHK570 cells (Homo sapiens, UniProt O60896+P30988); assay: ASSAY (II)a functional assay, human amylin receptor (CRE luciferase); type: cell-based; settings: for pEC50: human amylin receptor functional potency, assay (II), read-out: hAmylin-R funct. EC50
T1 construct: expressed in transfected cells
T1 sequence (O60896 24-148): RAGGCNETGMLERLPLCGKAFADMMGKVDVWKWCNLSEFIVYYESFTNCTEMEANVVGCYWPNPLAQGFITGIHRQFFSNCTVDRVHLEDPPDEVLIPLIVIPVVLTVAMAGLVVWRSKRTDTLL
T1 sequence (P30988 25-474): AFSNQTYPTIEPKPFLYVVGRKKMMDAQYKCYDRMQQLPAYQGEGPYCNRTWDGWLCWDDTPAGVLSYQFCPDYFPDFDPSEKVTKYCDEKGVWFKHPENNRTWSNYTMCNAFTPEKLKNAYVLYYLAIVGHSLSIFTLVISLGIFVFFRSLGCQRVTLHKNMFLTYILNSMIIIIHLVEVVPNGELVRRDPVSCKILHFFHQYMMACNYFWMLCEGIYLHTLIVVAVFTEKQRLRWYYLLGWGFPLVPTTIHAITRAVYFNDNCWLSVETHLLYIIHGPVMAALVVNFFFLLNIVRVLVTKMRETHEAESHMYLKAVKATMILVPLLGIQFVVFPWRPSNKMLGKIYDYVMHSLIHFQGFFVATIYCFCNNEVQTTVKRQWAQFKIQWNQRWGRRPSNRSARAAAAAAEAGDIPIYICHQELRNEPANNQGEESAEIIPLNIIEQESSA
Procedure, shortened: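 Functional agonism was measured by CRE-luciferase reporter luminescence in BHK cells bearing calcitonin receptor, or calcitonin receptor plus RAMP-3 as the amylin 3(a) receptor. Stimulation lasted 3 hours at 37° C.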

[3] = hCTR funct. EC50 divided by hAmylin-R funct. EC50
[4] = hCTR funct. EC50 over hAmylin-R funct. EC50
[5] = human functional selectivity: hCTR funct. EC50 / hAmylin-R funct. EC50
[6] = hCTR funct. EC50 / hAmylin-R funct. EC50

| SMILES | ThT pH 4.0 lag time (h) [1] | Ratio hCT/hAmylin funct. [2, 3] | Ratio hCT/hAmylin funct. [2, 4] | pEC50 [2] | Ratio hCT/hAmylin funct. [2, 5] | Ratio hCT/hAmylin funct. [2, 6] |
| --- | --- | --- | --- | --- | --- | --- |
| CC[C@H](C)[C@H](NC(=O)[C@H](C)NC(=O)CNC(=O)[C@H](Cc1ccccc1)NC(=O)[C@H](CC(N)=O)NC(=O)[C@@H]1CCCN1C(=O)[C@H](CO)NC(=O)[C@H](CO)NC(=O)[C@H](Cc1c[nH]cn1)NC(=O)[C@H](CCCNC(=N)N)NC(=O)[C@H](CC(C)C)NC(=O)[C@H](Cc1ccccc1)NC(=O)[C@H](Cc1c[nH]cn1)NC(=O)[C@H](C)NC(=O)[C@H](CC(C)C)NC(=O)[C@H](CCCNC(=N)N)NC(=O)[C@H](CCC(N)=O)NC(=O)[C@@H](NC(=O)[C@H](C)NC(=O)[C@@H]1CSSC[C@H](NC(=O)[C@@H](N)CCCCNC(=O)CC[C@H](NC(=O)CCCCCCCCCCCCCCCCCCC(=O)O)C(=O)O)C(=O)N[C@@H](CC(N)=O)C(=O)N[C@@H]([C@@H](C)O)C(=O)N[C@@H](C)C(=O)N[C@@H]([C@@H](C)O)C(=O)N1)[C@@H](C)O)C(=O)N1CCC[C@H]1C(=O)N[C@@H](CO)C(=O)N[C@@H](CO)C(=O)N[C@H](C(=O)N1CCC[C@H]1C(=O)N[C@H](C(=O)NCC(=O)N1CCC[C@H]1C(=O)N[C@@H](CC(N)=O)C(=O)N[C@H](C(=O)N[C@@H](Cc1ccc(O)cc1)C(N)=O)[C@@H](C)O)C(C)C)[C@@H](C)O [Example 116] (H-K([γGlu-C20 diacid])CNTATCATQRLAHFLRHSSPNFGAIPSSTPVGPNTY-NH2; disulfide 2-7) | 45 h | 4.9 |  |  | 4.9 | 4.9 |
| CC[C@H](C)[C@H](NC(=O)[C@H](C)NC(=O)CNC(=O)[C@H](Cc1ccccc1)NC(=O)[C@H](CC(N)=O)NC(=O)[C@@H]1CCCN1C(=O)[C@H](CO)NC(=O)[C@H](CO)NC(=O)[C@H](Cc1c[nH]cn1)NC(=O)[C@H](CCCNC(=N)N)NC(=O)[C@H](CC(C)C)NC(=O)[C@H](Cc1ccccc1)NC(=O)[C@H](CCC(=O)O)NC(=O)[C@H](C)NC(=O)[C@H](CC(C)C)NC(=O)[C@H](CCCNC(=N)N)NC(=O)[C@H](CCC(N)=O)NC(=O)[C@@H](NC(=O)[C@H](C)NC(=O)[C@@H]1CSSC[C@H](NC(=O)[C@@H](N)CCCCNC(=O)CC[C@H](NC(=O)CC[C@H](NC(=O)CCCCCCCCCCCCCCCCCCC(=O)O)C(=O)O)C(=O)O)C(=O)N[C@@H](CC(N)=O)C(=O)N[C@@H]([C@@H](C)O)C(=O)N[C@@H](C)C(=O)N[C@@H]([C@@H](C)O)C(=O)N1)[C@@H](C)O)C(=O)N1CCC[C@H]1C(=O)N[C@@H](CO)C(=O)N[C@@H](CO)C(=O)N[C@H](C(=O)N[C@@H](CC(N)=O)C(=O)N[C@H](C(=O)NCC(=O)N[C@@H](CCCNC(=N)N)C(=O)N[C@@H](CCC(=O)O)C(=O)N[C@H](C(=O)N[C@@H](Cc1ccc(O)cc1)C(N)=O)[C@@H](C)O)C(C)C)[C@@H](C)O [Example 105] (H-K([γGlu-γGlu-C20 diacid])CNTATCATQRLAEFLRHSSPNFGAIPSSTNVGRETY-NH2; disulfide 2-7; N-terminus assumed) | 45 h | 10.6 | 10.6 | 9.15 | 10.6 |  |
| CC[C@H](C)[C@H](NC(=O)[C@H](C)NC(=O)CNC(=O)[C@H](Cc1ccccc1)NC(=O)[C@H](CC(N)=O)NC(=O)[C@@H]1CCCN1C(=O)[C@H](CO)NC(=O)[C@H](CO)NC(=O)[C@H](Cc1c[nH]cn1)NC(=O)[C@H](CCCNC(=N)N)NC(=O)[C@H](CC(C)C)NC(=O)[C@H](Cc1ccccc1)NC(=O)[C@H](CCC(=O)O)NC(=O)[C@H](C)NC(=O)[C@H](CC(C)C)NC(=O)[C@H](CCCNC(=N)N)NC(=O)[C@H](CCC(N)=O)NC(=O)[C@@H](NC(=O)[C@H](C)NC(=O)[C@@H]1CSSC[C@H](NC(=O)[C@@H](N)CCCCNC(=O)CC[C@H](NC(=O)CCCCCCCCCCCCCCCCCCC(=O)O)C(=O)O)C(=O)N[C@@H](CC(N)=O)C(=O)N[C@@H]([C@@H](C)O)C(=O)N[C@@H](C)C(=O)N[C@@H]([C@@H](C)O)C(=O)N1)[C@@H](C)O)C(=O)N1CCC[C@H]1C(=O)N[C@@H](CO)C(=O)N[C@@H](CO)C(=O)N[C@H](C(=O)N[C@@H](CC(N)=O)C(=O)N[C@H](C(=O)NCC(=O)N[C@@H](CO)C(=O)N[C@@H](CC(N)=O)C(=O)N[C@H](C(=O)N1CCC[C@H]1C(N)=O)[C@@H](C)O)C(C)C)[C@@H](C)O [Example 12] (H-K([γGlu-C20 diacid])CNTATCATQRLAEFLRHSSPNFGAIPSSTNVGSNTP-NH2; disulfide 2-7 (inferred); N-terminus assumed) | 45 h | 1.8 | 1.8 |  | 1.8 | 1.8 |

Other lines, results leading:

| ThT pH 4.0 lag time (h) [1] | Ratio hCT/hAmylin funct. [2, 3] | Ratio hCT/hAmylin funct. [2, 4] | pEC50 [2] | Ratio hCT/hAmylin funct. [2, 5] | Ratio hCT/hAmylin funct. [2, 6] | SMILES |
| --- | --- | --- | --- | --- | --- | --- |
| 45 h | 8.9 | 8.9 | 9.41 | 8.9 |  | CC[C@H](C)[C@H](NC(=O)[C@H](C)NC(=O)CNC(=O)[C@H](Cc1ccccc1)NC(=O)[C@H](CC(N)=O)NC(=O)[C@@H]1CCCN1C(=O)[C@H](CO)NC(=O)[C@H](CO)NC(=O)[C@H](Cc1c[nH]cn1)NC(=O)[C@H](CCCNC(=N)N)NC(=O)[C@H](CC(C)C)NC(=O)[C@H](Cc1ccccc1)NC(=O)[C@H](CCC(=O)O)NC(=O)[C@H](C)NC(=O)[C@H](CC(C)C)NC(=O)[C@H](CCCNC(=N)N)NC(=O)[C@H](CCC(N)=O)NC(=O)[C@@H](NC(=O)[C@H](C)NC(=O)[C@@H]1CSSC[C@H](NC(=O)[C@H](CCCCN)NC(=O)CC[C@H](NC(=O)CC[C@H](NC(=O)CCCCCCCCCCCCCCCCCCC(=O)O)C(=O)O)C(=O)O)C(=O)N[C@@H](CC(N)=O)C(=O)N[C@@H]([C@@H](C)O)C(=O)N[C@@H](C)C(=O)N[C@@H]([C@@H](C)O)C(=O)N1)[C@@H](C)O)C(=O)N1CCC[C@H]1C(=O)N[C@@H](CO)C(=O)N[C@@H](CO)C(=O)N[C@H](C(=O)N[C@@H](CC(N)=O)C(=O)N[C@H](C(=O)NCC(=O)N[C@@H](CO)C(=O)N[C@@H](CC(N)=O)C(=O)N[C@H](C(=O)N[C@@H](Cc1ccc(O)cc1)C(N)=O)[C@@H](C)O)C(C)C)[C@@H](C)O [Example 15] ({C20 diacid-γGlu-γGlu}-KCNTATCATQRLAEFLRHSSPNFGAIPSSTNVGSNTY-NH2; disulfide 2-7 (inferred)) |
| 3 h | 8.9 | 8.9 |  | 8.9 |  | CC[C@H](C)[C@H](NC(=O)[C@H](C)NC(=O)CNC(=O)[C@H](Cc1ccccc1)NC(=O)[C@H](CC(N)=O)NC(=O)[C@@H]1CCCN1C(=O)[C@H](CO)NC(=O)[C@H](CO)NC(=O)[C@H](Cc1c[nH]cn1)NC(=O)[C@H](CCCNC(=N)N)NC(=O)[C@H](CC(C)C)NC(=O)[C@H](Cc1ccccc1)NC(=O)[C@H](CC(N)=O)NC(=O)[C@H](C)NC(=O)[C@H](CC(C)C)NC(=O)[C@H](CCCNC(=N)N)NC(=O)[C@H](CCC(N)=O)NC(=O)[C@@H](NC(=O)[C@H](C)NC(=O)[C@@H]1CSSC[C@H](NC(=O)[C@H](CCCCN)NC(=O)CC[C@H](NC(=O)CCCCCCCCCCCCCCCCCCC(=O)O)C(=O)O)C(=O)N[C@@H](CC(N)=O)C(=O)N[C@@H]([C@@H](C)O)C(=O)N[C@@H](C)C(=O)N[C@@H]([C@@H](C)O)C(=O)N1)[C@@H](C)O)C(=O)N1CCC[C@H]1C(=O)N[C@@H](CO)C(=O)N[C@@H](CO)C(=O)N[C@H](C(=O)N[C@@H](CC(N)=O)C(=O)N[C@H](C(=O)NCC(=O)N[C@@H](CO)C(=O)N[C@@H](CCC(=O)O)C(=O)N[C@H](C(=O)N[C@@H](Cc1ccc(O)cc1)C(N)=O)[C@@H](C)O)C(C)C)[C@@H](C)O [Example 23] |
| 15 h | 4.0 | 4.0 | 10.04 | 4.0 | 4.0 | CC[C@H](C)[C@H](NC(=O)[C@H](C)NC(=O)CNC(=O)[C@H](Cc1ccccc1)NC(=O)[C@H](CC(N)=O)NC(=O)[C@@H]1CCCN1C(=O)[C@H](CO)NC(=O)[C@H](CO)NC(=O)[C@H](Cc1c[nH]cn1)NC(=O)[C@H](CCCNC(=N)N)NC(=O)[C@H](CC(C)C)NC(=O)[C@H](Cc1ccccc1)NC(=O)[C@H](CCC(=O)O)NC(=O)[C@H](C)NC(=O)[C@H](CC(C)C)NC(=O)[C@H](CCCNC(=N)N)NC(=O)[C@H](CCC(N)=O)NC(=O)[C@@H](NC(=O)[C@H](C)NC(=O)[C@@H]1CSSC[C@H](NC(=O)[C@H](CCCCN)NC(=O)CC[C@H](NC(=O)CCCCCCCCCCCCCCCCCCC(=O)O)C(=O)O)C(=O)N[C@@H](CC(N)=O)C(=O)N[C@@H]([C@@H](C)O)C(=O)N[C@@H](C)C(=O)N[C@@H]([C@@H](C)O)C(=O)N1)[C@@H](C)O)C(=O)N1CCC[C@H]1C(=O)N[C@@H](CO)C(=O)N1CCC[C@H]1C(=O)N[C@H](C(=O)N[C@@H](CC(N)=O)C(=O)N[C@H](C(=O)NCC(=O)N[C@@H](CO)C(=O)N[C@@H](CC(N)=O)C(=O)N[C@H](C(=O)N[C@@H](Cc1ccc(O)cc1)C(N)=O)[C@@H](C)O)C(C)C)[C@@H](C)O [Example 37] ({C20 diacid-γGlu}-KCNTATCATQRLAEFLRHSSPNFGAIPSPTNVGSNTY-NH2; disulfide 2-7 (inferred)) |
